# Source: patent publication US6472401B2, “Methods for the treatment of vascular disorders” (Schering Corporation, priority 1999, dated 2002)
# Like-named read-outs stand apart in the source and are kept apart here.
# Experiments:
# [1] = Administration of antihistamine to patients suffering from clinical depression (Example 2); settings: for recurrence of symptoms of depression: patients known to have suffered from depression, not currently experiencing symptoms, administered indefinitely; for reduction of symptoms of depression: patients suffering from depression; for recurrence or worsening of symptoms of depression: responders continue treatment at their respective dosage level
# Description: Patients suffering from clinical depression are administered a non-sedating antihistamine (loratadine) or a low-sedating antihistamine (cetirizine) to relieve the symptoms of depression. Six treatment groups are contemplated.
# [2] = for recurrence of symptoms of depression: administered indefinitely
# [3] = patients known to have suffered from depression and subject to allergic rhinitis, no current symptoms of either
# [4] = patients known to have suffered from depression and suffering from allergic rhinitis, no current depression symptoms
# [5] = patients suffering from depression and allergic rhinitis
# [6] = patients suffering from depression, subject to allergic rhinitis but not currently suffering from it
# [7] = responders subject to allergic rhinitis but without current rhinitis symptoms continue treatment at their respective dosage level
# [8] = responders suffering from allergic rhinitis continue treatment at their respective dosage level
smiles,measurement,setting,value
O=C(O)COCCN1CCN(C(c2ccccc2)c2ccc(Cl)cc2)CC1 (stereo not drawn) [cetirizine],recurrence of symptoms of depression,[1],a significant number of patients do not experience recurrence of symptoms of depression
same,reduction of symptoms of depression,[1],A significant number of patients experience a reduction of their symptoms of depression
same,recurrence or worsening of symptoms of depression,[1],a significant number of patients do not experience recurrence or worsening of symptoms of depression
same,recurrence of symptoms of depression,[2]; [3],a significant number of patients do not experience recurrence of symptoms of depression
same,recurrence of symptoms of depression,[2]; [4],a significant number of patients do not experience recurrence of symptoms of depression
same,reduction of symptoms of depression,[2]; [5],A significant number of patients experience a reduction of their symptoms of depression
same,reduction of symptoms of depression,[2]; [6],A significant number of patients experience a reduction of their symptoms of depression
same,recurrence or worsening of symptoms of depression,[2]; [7],a significant number of patients do not experience recurrence or worsening of symptoms of depression
same,recurrence or worsening of symptoms of depression,[2]; [8],a significant number of patients do not experience recurrence or worsening of symptoms of depression
CCOC(=O)N1CCC(=C2c3ccc(Cl)cc3CCc3cccnc32)CC1 [loratadine],recurrence of symptoms of depression,[1],a significant number of patients do not experience recurrence of symptoms of depression
same,reduction of symptoms of depression,[1],A significant number of patients experience a reduction of their symptoms of depression
same,recurrence or worsening of symptoms of depression,[1],a significant number of patients do not experience recurrence or worsening of symptoms of depression
same,recurrence of symptoms of depression,[2]; [3],a significant number of patients do not experience recurrence of symptoms of depression
same,recurrence of symptoms of depression,[2]; [4],a significant number of patients do not experience recurrence of symptoms of depression
same,reduction of symptoms of depression,[2]; [5],A significant number of patients experience a reduction of their symptoms of depression
same,reduction of symptoms of depression,[2]; [6],A significant number of patients experience a reduction of their symptoms of depression
same,recurrence or worsening of symptoms of depression,[2]; [7],a significant number of patients do not experience recurrence or worsening of symptoms of depression
same,recurrence or worsening of symptoms of depression,[2]; [8],a significant number of patients do not experience recurrence or worsening of symptoms of depression
